Experimental data published in patent publication US11904040B2, “Zinc-amino acid-lauryl sulfate complex with antimicrobial activity” (Colgate-Palmolive Company, priority 2018, dated 2024).

Experiments:
[1] = Potentiometric titration, stability constants of the Zn, Lysine, SLS system; conditions: 25C, 50:50 glycerin:de-ionized water, 100 mM KNO3, 5 mM Zn
S. mutans = test: Metabolic inhibition of S. mutans (autotitrator base consumption after glucose); assay type: cell-based; conditions: for % Metabolic Reduction: S. mutans in 135 mM KCl, final zinc concentration 2.5 ppm (SLS equimolar to LS in Zn(Lys)2(LS)2), pH 7, 30 minutes, vs control containing only bacteria
Protocol: The chelation of zinc can modify its efficacy as an antibacterial agent. […] S. mutans is one of the prevalent bacteria present in the oral cavity. A concentrated suspension of S. mutans in 135 mM KCl was treated with a known concentration of zinc salt to obtain a final zinc concentration of 2.5 ppm. […] Using an autotitrator (Methrom Titrando 902) equipped with a 0.01M solution of KOH, the bacterial suspension was equilibrated to pH=7. After equilibrating, glucose was added to the solution. The autotitrator maintained the pH at 7 through the precise addition of KOH solution. The experiment was allowed to proceed for 30 minutes and the volume of base added was recorded at 10 second intervals. After 30 mins, a growth curve of base addition over time was obtained. The area under this curve was compared to the area under the curve for a control sample containing only bacteria and used to calculate a % reduction value. The control sample was analyzed from the same bacterial suspension as the test sample and the two samples were analyzed within 3 hours of each other. In order for data from a given suspension of S. mutans to be included, the control sample must consume at least 5 mL of base solution during the 30 minute time period.

| Molecule | Log(B) stability constant [1] | % Metabolic Reduction (S. mutans) | antibacterial performance compared to corresponding zinc-amino acid complex (S. mutans; S. mutans metabolic reduction, Table 10) |
| --- | --- | --- | --- |
| NCCCC[C@H](N)C(=O)O [HLys] | 10.07 |  |  |
| CCCCCCCCCCCCOS(=O)(=O)[O-].[Na+] [Sodium lauryl sulfate, sodium lauryl sulfate] |  | 34.12 ± 1.56% |  |
| NCCCCC(N)C(=O)O.NCCCCC(N)C(=O)O.[Cl-].[Cl-].[Zn+2] (stereo not shown) [ZLC, [Zn(C6H14N2O2)2Cl]^+Cl^−] |  | 53.90 ± 2.36% |  |
| O=[N+]([O-])[O-].O=[N+]([O-])[O-].[Zn+2] [Zn(NO3)2] |  | 67.16 ± 2.49% |  |
| zinc arginate [[Zn(Arg)2]^2+] |  | 67.19 ± 0.32% |  |
| zinc-arginine-lauryl sulfate [Zn(Arg)2(LS)2] |  | 72.53 ± 3.76% | directionally improved antibacterial performance compared to [Zn(Arg)2]^2+ |
